The text below walks through data of patent publication US10703761B2, “Bile acid receptor modulators and methods of use thereof” (City of Hope, priority 2016, dated 2020).

Entries after “also recorded” stand apart in the source; their conditions may differ.

One series concerns the target T1, FXR (Homo sapiens, UniProt Q96RI1).
T1 construct: expressed in transfected cells; host or cells: HEK293 (transient)
T1 sequence (Q96RI1 1-486): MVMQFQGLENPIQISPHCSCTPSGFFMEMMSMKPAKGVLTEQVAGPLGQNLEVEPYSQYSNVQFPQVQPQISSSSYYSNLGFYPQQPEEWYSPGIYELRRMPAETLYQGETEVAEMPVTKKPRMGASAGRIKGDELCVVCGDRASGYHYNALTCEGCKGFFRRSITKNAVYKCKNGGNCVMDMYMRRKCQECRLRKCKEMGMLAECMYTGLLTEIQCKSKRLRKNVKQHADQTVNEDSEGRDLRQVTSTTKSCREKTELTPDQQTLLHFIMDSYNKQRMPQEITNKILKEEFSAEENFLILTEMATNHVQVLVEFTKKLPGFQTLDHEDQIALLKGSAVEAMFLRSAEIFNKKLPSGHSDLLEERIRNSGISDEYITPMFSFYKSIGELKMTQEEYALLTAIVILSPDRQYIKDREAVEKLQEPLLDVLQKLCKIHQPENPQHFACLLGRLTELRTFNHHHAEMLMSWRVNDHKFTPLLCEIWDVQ
T1 sequence (P19793 1-462 partner): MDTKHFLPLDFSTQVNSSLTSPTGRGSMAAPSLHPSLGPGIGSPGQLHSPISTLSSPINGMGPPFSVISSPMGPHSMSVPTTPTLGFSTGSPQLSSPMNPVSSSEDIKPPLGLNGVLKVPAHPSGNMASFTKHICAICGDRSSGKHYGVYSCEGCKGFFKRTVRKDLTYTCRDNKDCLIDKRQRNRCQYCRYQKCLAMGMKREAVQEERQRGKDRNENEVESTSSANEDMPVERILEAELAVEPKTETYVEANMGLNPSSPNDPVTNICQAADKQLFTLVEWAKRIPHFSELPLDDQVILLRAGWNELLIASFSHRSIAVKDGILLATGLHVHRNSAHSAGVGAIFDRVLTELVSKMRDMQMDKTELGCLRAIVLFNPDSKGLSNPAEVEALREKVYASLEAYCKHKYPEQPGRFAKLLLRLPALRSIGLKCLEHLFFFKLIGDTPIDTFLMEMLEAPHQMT
Briefly: FXR luciferase reporter assay, transient transfection with a synthetic FXR responsive reporter plasmid in HEK293 cells. Format: cell-based. As to conditions: compound alone, compared with GW4064. The procedure: Effect of berberine derivatives and γ-aminobutyric acid derivative on FXR inhibition was initially assessed using transient transfections with a synthetic FXR responsive reporter plasmid. HEK 293 Cells were treated with vehicle alone or 100 μM CDCA with or without compounds, as indicated. Results are luciferase expression normalized using the β-gal internal control.
TGR5-reporting activity was evaluated by luciferase assay. Treatments were performed in quadruplicate and normalized with β-galactosidase. HEK293 cells were transfected with FXR and RXRα, and FXRE-containing luciferase construct. Cells were treated with 10 μM of indicated compounds; luciferase was measured and normalized with β-galactosidase.
To evaluate TGR5 activity of compounds, cells were transfected 100 ng pCRE-luc reporter along with pCMV-galactosidase (10 ng) as an internal control for normalization of transfection efficiency. Plasmids were complexed with […] of Fugene 6 reagent (Promega, Madison, Wis.) in OptiMEM (Invitrogen, Carlsbad, Calif.) and cells were transfected for 18 h. The following day, cells were treated with vehicle and appropriate ligand as indicated. Luciferase and β-galactosidase activities were assayed 6 h later using Luciferase Assay System (Promega) and Galacto-Star (Applied Biosystems, Foster City, Calif.) reagents, respectively, and a MLX luminometer (Dynex Technologies, Chantilly, Va.). To evaluate the FXR activity of compounds, HEK293 cells were transfected with 25 ng of farnesoid X receptor expression plasmid (pCMX-hFXR), 25 ng of retinoid X receptor expression plasmid (pCMXhRXR), 100 ng of reporter plasmid (pEcREx6-TK-Luc), and 10 ng of pCMV-b-galactosidase as an internal control in each well, using Fugene 6 reagent. Approximately 18 h after transfection, cells were incubated for 12 h with different concentrations of each.

Series [1] has as its target T2, Gal4 DNA binding domain FXR ligand-binding domain fusion protein (Homo sapiens, UniProt Q96RI1).
T2 construct: expressed in transfected cells; host or cells: HEK 293
T2 sequence (Q96RI1 262-486 limits assumed): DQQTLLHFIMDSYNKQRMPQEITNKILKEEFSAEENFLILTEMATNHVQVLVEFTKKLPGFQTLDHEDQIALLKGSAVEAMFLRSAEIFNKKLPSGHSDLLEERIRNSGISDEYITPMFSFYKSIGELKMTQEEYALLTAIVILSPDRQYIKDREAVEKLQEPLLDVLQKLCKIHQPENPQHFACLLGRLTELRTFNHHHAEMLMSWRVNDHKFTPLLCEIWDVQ
Briefly: Gal4 DBD-FXR LBD chimera transactivation assay in HEK 293 cells. The class given is cell-based. As to conditions: CDCA 100 μM, compounds 10 μM. The procedure: FIG. 10: Berberine derivatives inhibit FXR transactivation. HEK 293 cells were cotransfected with a luciferase reporter plasmid containing five copies of the Gal4 binding site and an expression vector for a Gal4 DNA binding domain FXR ligand-binding domain fusion protein, along with a CMX-β-gal internal control. CDCA: 100 μM, Compounds: 10 μM
In the presence of 100 μM CDCA, a concentration approximately threefold above that required for half-maximal activation of FXR, 10 μM selected berberine derivatives decreased FXR transactivation by nearly 50%.

Series [2] has as its system metabolic nuclear receptors. Briefly: Activation of metabolic nuclear receptors compared with native ligands. The class given is cell-based. As to conditions: 10 μM. The procedure:
FIG. 2(A) HEK293 cells lacking or overexpressing TGR5 were treated with increasing doses of berberine for 16 hours and TGR5-reporting activity was evaluated using luciferase assays. FIG. 2(B) Ability of berberine to activate metabolic nuclear receptors was evaluated in comparison to native ligands. All ligands were used at a 10 μM concentration.
Our current efforts are also aimed at extending these studies in vivo to murine type II diabetic models (using high fat diet feeding) with and without the TGR5 receptor. Confirmation of the berberine effect was evaluated using q-RT-PCR to assess activated TGR5 target genes including inflammatory gene expression and deiodinase-2.

The next series concerns the target T3, FXR-RXR heterodimers (Homo sapiens, UniProt Q96RI1).
T3 sequence (Q96RI1 1-486): T1 sequence (Q96RI1 1-486)
T3 sequence (P19793 1-462 partner): T1 sequence (P19793 1-462 partner)
Briefly: Specific DNA binding by FXR-RXR heterodimers in vitro. Format: biochemical. As to conditions: data not shown.

For another series, the system named is NCI-H716 cells. As to conditions: cited from earlier work.
In another series the test system is db/db mice. As to conditions: mouse, in vivo; cited from earlier work.
The conditions of series [3]: in vivo; cited from earlier work.

For the compound `COc1ccc2cc3[n+](cc2c1OC)CCc1cc2c(cc1-3)OCO2` [berberine], the figures for the “FXR activity of compound alone (agonism)” value on FXR and on FXR (listed as Berberine) were “failed to activate FXR” and “no effect on FXR activity”, respectively. Moreover, in series [1], the “Transactivation by GAL4 DBD-FXR LBD chimera” value is reported as “did inhibit transactivation”. In addition, the “Activation of other metabolic nuclear receptors” value in series [2] was “does not activate other metabolic nuclear receptors”. Further, the “Specific DNA binding by FXR-RXR heterodimers” value at FXR-RXR heterodimers is “did not affect specific DNA binding”. In the series on NCI-H716 cells, the “Prohormone convertase 3 and proglucagon mRNA expression” value is “promoted both prohormone convertase 3 and proglucagon mRNA expression”. Further, in the series on NCI-H716 cells (in vitro), the GLP-1 release result is recorded as “modulated GLP-1 release; also recorded: concentration-dependently stimulated GLP-1 release”. Also, the “Metabolic properties in db/db mice” value in the series with db/db mice is “insulin sensitizing as well as weight- and lipid-lowering properties”. For the same compound, in series [3], the “Plasma concentration / gut restriction” value is “keeps low concentration in plasma”.
